Assay results published in ChEMBL document CHEMBL4020831, “Discovery of GDC-0853: A Potent, Selective, and Noncovalent Bruton's Tyrosine Kinase Inhibitor in Early Clinical Development” (J Med Chem, 2018).
In brackets after ≈: the same amount, converted by molar mass. Activity calls are given as the source filed them. The rule behind the calls is not given here.

How the values were obtained:
Rattus norvegicus [1] = experiment: Antiinflammatory activity in Lewis rat collagen-induced arthritis model assessed as reduction in ankle pannus at 0.06 to 16 mg/kg, po administered qd for 16 days; type: functional, organism-based
Cav1.2 [2] = molecular target: T1, Cav1.2 (Homo sapiens, UniProt Q13936); experiment: Inhibition of human Cav1.2 expressed in CHO cells at 1 uM incubated for 3 to 5 mins by Qpatch clamp assay; type: cell-based; settings: CHO cells expressing human Cav1.2
Escherichia coli = experiment: Genotoxicity in Escherichia coli WP2 harboring uvrA deletion mutant after 48 to 72 hrs in presence of liver S9 fraction by Ames test; type: toxicity
Rattus norvegicus [3] = experiment: Antiinflammatory activity in Lewis rat collagen-induced arthritis model assessed as reduction in ankle diameter AUC at 0.125 mg/kg, po administered bid for 16 days relative to control; type: functional; settings: 384 h
Rattus norvegicus [4] = experiment: Antiinflammatory activity in Lewis rat collagen-induced arthritis model assessed as reduction in ankle inflammation at 0.06 to 16 mg/kg, po administered qd for 16 days; type: functional, organism-based
Rattus norvegicus [5] = experiment: Time at which plasma concentration stays above in vitro IC50 for BTK autophosphorylation at Y223 in rat whole blood in Lewis rat collagen-induced arthritis model at 1 to 16 mg/kg, po qd measured during 24 hrs dosing
Salmonella typhimurium [6] = experiment: Genotoxicity in Salmonella typhimurium TA1535 after 48 to 72 hrs in presence of liver S9 fraction by Ames test; type: toxicity; settings: salmonella enterica subsp. enterica serovar typhimurium
Rattus norvegicus [7] = experiment: Antiinflammatory activity in po dosed Lewis rat collagen-induced arthritis model assessed as reduction in ankle thickness administered qd for 16 days; type: functional, organism-based
Salmonella typhimurium [8] = experiment: Genotoxicity in Salmonella typhimurium TA100 after 48 to 72 hrs in presence of liver S9 fraction by Ames test; type: toxicity; settings: salmonella enterica subsp. enterica serovar typhimurium
ERBB4 = ERBB4 (Homo sapiens, UniProt Q15303); experiment: Inhibition of recombinant human cytoplasmic GST-tagged ERBB4 expressed in baculovirus at 1 uM by Z'-LYTE assay
Rattus norvegicus [9] = experiment: Time at which plasma concentration stays above in vitro IC70 for BTK autophosphorylation at Y223 in rat whole blood in Lewis rat collagen-induced arthritis model at 0.125 to 2 mg/kg, po bid measured during 12 hrs dosing
Rattus norvegicus [10] = experiment: Time at which plasma concentration stays above in vitro IC70 for BTK autophosphorylation at Y223 in rat whole blood in Lewis rat collagen-induced arthritis model at 1 mg/kg, po bid measured during 24 hrs dosing
Rattus norvegicus [11] = experiment: Antiinflammatory activity in Lewis rat collagen-induced arthritis model assessed as reduction in ankle diameter AUC at 1 mg/kg, po administered qd for 16 days relative to control; type: functional; settings: 384 h
PBL [12] = experiment: Genotoxicity in human PBL assessed as induction of micronuclei at 500 ug/ml in presence of rat liver S9 fraction by cytochalasin B-block method; type: toxicity, cell-based
[13] = Half life in rat at 0.2 mg/kg, iv or 1 mg/kg, po administered as single dose via cassette dosing; type: ADME, organism-based; settings: in vivo
[14] = Clearance in human hepatocytes at 1 uM incubated up to 60 mins by LC-MS/MS method; type: ADME, cell-based, Hepatocyte
PBL [15] = experiment: Genotoxicity in human PBL assessed as induction of micronuclei at 500 ug/ml in absence of rat liver S9 fraction by cytochalasin B-block method; type: toxicity, cell-based
[16] = Volume of distribution in rat at 0.2 mg/kg, iv or 1 mg/kg, po administered as single dose via cassette dosing; type: ADME, organism-based; settings: in vivo
Rattus norvegicus [17] = experiment: Antiinflammatory activity in Lewis rat collagen-induced arthritis model assessed as reduction in ankle diameter AUC at 4 mg/kg, po administered qd for 16 days relative to control; type: functional; settings: 384 h
[18] = Aqueous solubility of the compound; type: physicochemical; settings: buffer
Hepatocyte = experiment: Cytotoxicity against human primary hepatocytes assessed as reduction in cell viability; type: cell-based
Salmonella typhimurium [19] = experiment: Genotoxicity in Salmonella typhimurium TA97a after 48 to 72 hrs in absence of liver S9 fraction by Ames test; type: toxicity; settings: salmonella enterica subsp. enterica serovar typhimurium
Rattus norvegicus [20] = experiment: Time at which plasma concentration stays above IC90 for BTK autophosphorylation at Y223 in rat whole blood in Lewis rat collagen-induced arthritis model at 0.125 to 2 mg/kg, po bid measured during 12 hrs dosing
physchem = settings: buffer, pH 7.4
Rattus norvegicus [21] = experiment: Antiinflammatory activity in Lewis rat collagen-induced arthritis model assessed as reduction in ankle diameter AUC at 16 mg/kg, po administered qd for 16 days relative to control; type: functional; settings: 384 h
Rattus norvegicus [22] = experiment: Time at which plasma concentration stays above IC70 for BTK autophosphorylation at Y223 in rat whole blood in Lewis rat collagen-induced arthritis model at 0.5 mg/kg, po qd measured during 24 hrs dosing
Cytochrome P450 2C9 = Cytochrome P450 2C9 (Homo sapiens, UniProt P11712); experiment: Inhibition of CYP2C9 (unknown origin); type: ADME
Salmonella typhimurium [23] = experiment: Genotoxicity in Salmonella typhimurium TA100 after 48 to 72 hrs in absence of liver S9 fraction by Ames test; type: toxicity; settings: salmonella enterica subsp. enterica serovar typhimurium
Rattus norvegicus [24] = experiment: Antiinflammatory activity in Lewis rat collagen-induced arthritis model assessed as reduction in ankle cartilage damage at 0.06 to 16 mg/kg, po administered qd for 16 days; type: functional, organism-based
LTK = LTK (Homo sapiens, UniProt P29376); experiment: Inhibition of recombinant human cytoplasmic GST-tagged LTK expressed in baculovirus at 1 uM by Z'-LYTE assay
Cytochrome P450 2C19 = Cytochrome P450 2C19 (Homo sapiens, UniProt P33261); experiment: Inhibition of CYP2C19 (unknown origin); type: ADME
Cav1.2 [25] = molecular target: T1, Cav1.2; experiment: Inhibition of human Cav1.2 expressed in CHO cells at 10 uM incubated for 3 to 5 mins by Qpatch clamp assay; type: cell-based; settings: CHO cells expressing human Cav1.2
Rattus norvegicus [26] = experiment: Antiinflammatory activity in Lewis rat collagen-induced arthritis model assessed as reduction in bone resorption at 0.06 to 16 mg/kg, po administered qd for 16 days; type: functional, organism-based
TXK = molecular target: T2, TXK (Homo sapiens, UniProt P42681); experiment: Inhibition of human full length GST-tagged TXK expressed in baculovirus at 1 uM by Z'-LYTE assay
T2 sequence (P42681 whole entry): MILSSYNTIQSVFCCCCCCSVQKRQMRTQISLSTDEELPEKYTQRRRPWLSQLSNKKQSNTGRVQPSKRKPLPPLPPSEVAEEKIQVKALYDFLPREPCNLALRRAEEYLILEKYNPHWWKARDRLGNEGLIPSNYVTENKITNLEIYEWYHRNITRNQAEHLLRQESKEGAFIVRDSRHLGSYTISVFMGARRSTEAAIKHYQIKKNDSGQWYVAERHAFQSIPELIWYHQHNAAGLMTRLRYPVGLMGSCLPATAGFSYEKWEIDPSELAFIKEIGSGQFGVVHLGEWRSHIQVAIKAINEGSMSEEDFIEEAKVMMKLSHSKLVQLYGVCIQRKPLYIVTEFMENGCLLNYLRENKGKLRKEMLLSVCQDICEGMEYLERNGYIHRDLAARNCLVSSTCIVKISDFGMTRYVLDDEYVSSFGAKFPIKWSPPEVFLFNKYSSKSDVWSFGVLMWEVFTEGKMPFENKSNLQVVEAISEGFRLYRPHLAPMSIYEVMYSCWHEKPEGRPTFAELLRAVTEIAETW

T1 sequence (Q13936 whole entry): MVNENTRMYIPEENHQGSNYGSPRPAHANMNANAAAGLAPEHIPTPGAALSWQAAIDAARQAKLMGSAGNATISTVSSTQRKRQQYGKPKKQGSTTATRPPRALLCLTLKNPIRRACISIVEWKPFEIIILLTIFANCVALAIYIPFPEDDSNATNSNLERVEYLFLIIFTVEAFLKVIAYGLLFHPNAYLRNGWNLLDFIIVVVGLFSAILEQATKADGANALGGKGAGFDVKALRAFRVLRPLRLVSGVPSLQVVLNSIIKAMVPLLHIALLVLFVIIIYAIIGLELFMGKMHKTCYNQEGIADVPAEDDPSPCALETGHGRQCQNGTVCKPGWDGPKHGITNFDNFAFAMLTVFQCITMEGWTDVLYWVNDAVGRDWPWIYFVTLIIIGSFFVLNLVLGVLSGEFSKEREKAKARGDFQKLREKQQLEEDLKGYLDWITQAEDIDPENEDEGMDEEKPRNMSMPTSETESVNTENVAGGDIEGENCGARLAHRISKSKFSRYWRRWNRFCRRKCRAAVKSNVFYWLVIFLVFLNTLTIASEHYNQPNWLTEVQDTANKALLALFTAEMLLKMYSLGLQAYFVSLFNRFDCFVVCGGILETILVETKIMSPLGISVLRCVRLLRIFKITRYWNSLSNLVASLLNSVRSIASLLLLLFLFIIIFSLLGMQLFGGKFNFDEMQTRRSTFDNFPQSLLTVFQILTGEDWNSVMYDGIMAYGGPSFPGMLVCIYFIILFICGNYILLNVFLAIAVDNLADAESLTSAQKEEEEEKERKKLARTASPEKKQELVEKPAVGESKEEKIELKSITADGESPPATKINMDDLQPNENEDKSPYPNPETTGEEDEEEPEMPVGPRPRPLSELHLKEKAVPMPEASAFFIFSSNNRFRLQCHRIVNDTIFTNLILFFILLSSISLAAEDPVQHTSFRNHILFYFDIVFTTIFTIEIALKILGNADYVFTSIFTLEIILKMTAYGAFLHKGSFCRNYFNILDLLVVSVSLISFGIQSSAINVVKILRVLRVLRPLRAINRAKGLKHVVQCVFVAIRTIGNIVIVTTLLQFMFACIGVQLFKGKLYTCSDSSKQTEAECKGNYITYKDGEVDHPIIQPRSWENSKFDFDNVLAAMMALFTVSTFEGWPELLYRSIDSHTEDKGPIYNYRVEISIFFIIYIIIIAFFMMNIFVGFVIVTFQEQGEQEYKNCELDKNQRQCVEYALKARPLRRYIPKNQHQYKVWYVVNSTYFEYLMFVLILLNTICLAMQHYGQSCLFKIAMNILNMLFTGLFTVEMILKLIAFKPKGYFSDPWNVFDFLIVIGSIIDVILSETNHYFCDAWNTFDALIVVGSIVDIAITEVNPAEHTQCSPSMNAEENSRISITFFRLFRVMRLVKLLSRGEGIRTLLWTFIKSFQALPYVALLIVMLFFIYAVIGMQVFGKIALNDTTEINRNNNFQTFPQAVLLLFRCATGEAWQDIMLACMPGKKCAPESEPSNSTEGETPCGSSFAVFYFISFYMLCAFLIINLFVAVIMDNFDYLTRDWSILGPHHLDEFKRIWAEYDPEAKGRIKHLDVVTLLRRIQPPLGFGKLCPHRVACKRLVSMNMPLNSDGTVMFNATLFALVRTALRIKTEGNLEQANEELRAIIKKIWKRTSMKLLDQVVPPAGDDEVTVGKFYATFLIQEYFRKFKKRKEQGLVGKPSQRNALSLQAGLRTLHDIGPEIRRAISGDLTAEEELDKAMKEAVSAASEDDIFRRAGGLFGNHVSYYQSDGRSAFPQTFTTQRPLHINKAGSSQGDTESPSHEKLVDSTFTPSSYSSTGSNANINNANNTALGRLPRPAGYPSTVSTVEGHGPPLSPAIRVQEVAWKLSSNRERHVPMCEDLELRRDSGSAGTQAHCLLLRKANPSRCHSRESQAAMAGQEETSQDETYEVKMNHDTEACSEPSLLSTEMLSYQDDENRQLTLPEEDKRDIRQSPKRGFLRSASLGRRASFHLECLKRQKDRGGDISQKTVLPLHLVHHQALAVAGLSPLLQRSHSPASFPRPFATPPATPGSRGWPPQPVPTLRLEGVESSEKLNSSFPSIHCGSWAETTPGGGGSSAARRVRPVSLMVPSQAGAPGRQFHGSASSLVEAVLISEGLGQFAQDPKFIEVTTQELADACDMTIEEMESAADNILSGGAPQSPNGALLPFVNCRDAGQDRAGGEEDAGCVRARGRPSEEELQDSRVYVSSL
LTK, sequence (P29376 whole entry): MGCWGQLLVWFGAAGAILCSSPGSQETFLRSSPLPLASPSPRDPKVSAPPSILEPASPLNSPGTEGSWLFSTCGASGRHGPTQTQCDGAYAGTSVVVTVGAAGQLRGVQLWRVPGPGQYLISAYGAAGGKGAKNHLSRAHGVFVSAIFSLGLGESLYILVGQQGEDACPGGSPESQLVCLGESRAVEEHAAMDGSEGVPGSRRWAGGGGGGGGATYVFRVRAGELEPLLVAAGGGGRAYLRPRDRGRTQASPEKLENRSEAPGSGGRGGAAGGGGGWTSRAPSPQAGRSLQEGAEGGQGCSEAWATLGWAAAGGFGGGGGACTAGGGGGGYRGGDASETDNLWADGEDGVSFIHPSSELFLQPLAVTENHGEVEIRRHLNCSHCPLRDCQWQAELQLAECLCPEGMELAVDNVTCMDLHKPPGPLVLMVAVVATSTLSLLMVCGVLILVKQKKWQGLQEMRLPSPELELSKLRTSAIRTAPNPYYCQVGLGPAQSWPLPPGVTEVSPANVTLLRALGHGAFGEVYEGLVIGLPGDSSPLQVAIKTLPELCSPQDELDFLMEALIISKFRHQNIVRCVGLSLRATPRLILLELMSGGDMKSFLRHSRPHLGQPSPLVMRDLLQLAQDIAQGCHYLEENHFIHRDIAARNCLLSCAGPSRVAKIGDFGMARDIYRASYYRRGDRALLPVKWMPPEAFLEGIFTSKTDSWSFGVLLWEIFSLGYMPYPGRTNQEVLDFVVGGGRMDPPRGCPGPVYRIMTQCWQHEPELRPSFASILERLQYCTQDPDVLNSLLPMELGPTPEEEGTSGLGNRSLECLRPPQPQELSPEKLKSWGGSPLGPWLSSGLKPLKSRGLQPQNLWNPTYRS
ERBB4, sequence (Q15303 whole entry): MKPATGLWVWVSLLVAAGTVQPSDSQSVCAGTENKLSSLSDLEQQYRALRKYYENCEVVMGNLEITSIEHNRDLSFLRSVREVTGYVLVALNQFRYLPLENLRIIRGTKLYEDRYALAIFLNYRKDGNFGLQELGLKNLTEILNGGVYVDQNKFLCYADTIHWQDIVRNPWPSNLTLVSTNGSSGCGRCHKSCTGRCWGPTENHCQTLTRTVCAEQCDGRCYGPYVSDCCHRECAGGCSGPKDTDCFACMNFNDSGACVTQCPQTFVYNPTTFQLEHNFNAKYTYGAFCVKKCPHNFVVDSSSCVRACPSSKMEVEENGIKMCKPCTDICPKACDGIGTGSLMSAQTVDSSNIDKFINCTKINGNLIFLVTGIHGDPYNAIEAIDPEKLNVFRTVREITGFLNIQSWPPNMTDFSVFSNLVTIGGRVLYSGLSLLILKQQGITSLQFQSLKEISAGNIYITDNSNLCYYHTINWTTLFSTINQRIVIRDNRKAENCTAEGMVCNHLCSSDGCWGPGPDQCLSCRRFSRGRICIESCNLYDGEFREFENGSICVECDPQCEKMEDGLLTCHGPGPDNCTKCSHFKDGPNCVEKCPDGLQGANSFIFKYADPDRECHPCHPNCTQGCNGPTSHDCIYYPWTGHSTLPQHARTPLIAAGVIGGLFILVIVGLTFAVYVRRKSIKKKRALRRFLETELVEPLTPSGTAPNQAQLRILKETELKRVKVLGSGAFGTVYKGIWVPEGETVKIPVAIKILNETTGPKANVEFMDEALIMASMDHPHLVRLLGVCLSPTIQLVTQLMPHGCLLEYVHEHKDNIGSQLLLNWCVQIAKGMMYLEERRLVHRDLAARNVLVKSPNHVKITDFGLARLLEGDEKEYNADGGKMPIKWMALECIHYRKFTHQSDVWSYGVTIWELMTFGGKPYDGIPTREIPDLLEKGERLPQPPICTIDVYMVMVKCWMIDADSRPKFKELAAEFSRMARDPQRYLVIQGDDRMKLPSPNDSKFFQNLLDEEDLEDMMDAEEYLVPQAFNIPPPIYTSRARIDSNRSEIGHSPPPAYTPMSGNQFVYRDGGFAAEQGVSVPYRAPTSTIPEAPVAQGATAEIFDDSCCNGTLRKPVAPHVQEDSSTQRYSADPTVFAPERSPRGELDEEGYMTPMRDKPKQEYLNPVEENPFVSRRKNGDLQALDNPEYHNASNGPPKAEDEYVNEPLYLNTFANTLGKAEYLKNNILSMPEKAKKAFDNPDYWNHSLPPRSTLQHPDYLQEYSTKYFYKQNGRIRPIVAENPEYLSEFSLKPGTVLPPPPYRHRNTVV
Cytochrome P450 2C19, sequence (P33261 whole entry): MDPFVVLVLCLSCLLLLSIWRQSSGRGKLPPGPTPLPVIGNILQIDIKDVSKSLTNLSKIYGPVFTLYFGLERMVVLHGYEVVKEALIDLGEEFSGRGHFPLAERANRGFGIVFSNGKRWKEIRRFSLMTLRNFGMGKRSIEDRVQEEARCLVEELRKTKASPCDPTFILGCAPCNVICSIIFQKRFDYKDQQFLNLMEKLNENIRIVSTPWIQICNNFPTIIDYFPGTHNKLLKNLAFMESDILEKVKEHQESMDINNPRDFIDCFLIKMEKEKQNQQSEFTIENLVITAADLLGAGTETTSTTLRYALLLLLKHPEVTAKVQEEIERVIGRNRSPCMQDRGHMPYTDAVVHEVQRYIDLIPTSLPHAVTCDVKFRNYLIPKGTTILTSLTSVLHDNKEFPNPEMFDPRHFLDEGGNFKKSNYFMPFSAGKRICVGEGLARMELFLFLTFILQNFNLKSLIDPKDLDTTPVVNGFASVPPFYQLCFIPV

inhibition at 1 µM (ERBB4): 1% | half-life [13]: 2.2 h | CLhep predicted at 1 µM [14]: 7.6 mL/min/kg | Vd [16]: 5.42 L/kg | solubility [18]: 3 µg/mL (≈ 4.51 µM) | logD (physchem): 1.6 | IC50 (Cytochrome P450 2C9): > 5 µM | inhibition at 1 µM (LTK): -1% | IC50 (Cytochrome P450 2C19): > 5 µM | inhibition at 1 µM (TXK): 4%
SMILES: C[C@H]1CN(C2COC2)CCN1c1ccc(Nc2cc(-c3ccnc(N4CCn5c(cc6c5CC(C)(C)C6)C4=O)c3CO)cn(C)c2=O)nc1 [FENEBRUTINIB]
Activity (Rattus norvegicus [1]): Active | inhibition at 1 µM (Cav1.2 [2]): 1.5% | Activity (Escherichia coli): Non-Toxic | inhibition in vivo at 0.125 mg/kg (Rattus norvegicus [3]): 50% | Activity (Rattus norvegicus [4]): Active | Time (Rattus norvegicus [5]): 12 h | Activity (Salmonella typhimurium [6]): Non-Toxic | Activity (Rattus norvegicus [7]): Dose-dependent effect | Activity (Salmonella typhimurium [8]): Non-Toxic | Time (Rattus norvegicus [9]): 6 h | Time (Rattus norvegicus [10]): 12 h | inhibition in vivo at 1 mg/kg (Rattus norvegicus [11]): 71% | Activity (PBL [12]): Non-Toxic | Activity (PBL [15]): Non-Toxic | inhibition in vivo at 4 mg/kg (Rattus norvegicus [17]): 89% | IC50 (Hepatocyte): > 300 µM | Activity (Salmonella typhimurium [19]): Non-Toxic | Time (Rattus norvegicus [20]): 6 h | inhibition in vivo at 16 mg/kg (Rattus norvegicus [21]): 99% | Time (Rattus norvegicus [22]): 12 h | Activity (Salmonella typhimurium [23]): Non-Toxic | Activity (Rattus norvegicus [24]): Active | inhibition at 10 µM (Cav1.2 [25]): 3.8% | Activity (Rattus norvegicus [26]): Active
